Measurements taken from US5861476A, “Peptides and compounds that bind to the IL-1 receptor” (Affymax Technologies N.V., priority 1995, dated 1999).
Where two headings read alike, the source gives them in different places. Where a SMILES comes first, the peptide text is derived from it. [ ]: non-standard residue; d: D form. pY = N[C@@H](Cc1ccc(OP(=O)(O)O)cc1)C(=O)O; 1Nal = N[C@@H](Cc1cccc2ccccc12)C(=O)O; Aze = O=C(O)[C@@H]1CCN1

Legend:
[1] = biological target: T1, IL-1 induced down-regulation of the epidermal growth factor (EGF) receptor in normal human dermal fibroblasts (NHDF) (Homo sapiens, UniProt P14778); experiment: Epidermal Growth Factor Receptor Down Regulation Assay; assay type: cell-based; conditions: 37° C., in the presence of IL-1α, 125I-labeled EGF binding, read-out: IC50 (approximate concentration which blocked 50% of the IL-1 induced down regulation of the EGF receptor)
T1 sequence (P14778 18-569): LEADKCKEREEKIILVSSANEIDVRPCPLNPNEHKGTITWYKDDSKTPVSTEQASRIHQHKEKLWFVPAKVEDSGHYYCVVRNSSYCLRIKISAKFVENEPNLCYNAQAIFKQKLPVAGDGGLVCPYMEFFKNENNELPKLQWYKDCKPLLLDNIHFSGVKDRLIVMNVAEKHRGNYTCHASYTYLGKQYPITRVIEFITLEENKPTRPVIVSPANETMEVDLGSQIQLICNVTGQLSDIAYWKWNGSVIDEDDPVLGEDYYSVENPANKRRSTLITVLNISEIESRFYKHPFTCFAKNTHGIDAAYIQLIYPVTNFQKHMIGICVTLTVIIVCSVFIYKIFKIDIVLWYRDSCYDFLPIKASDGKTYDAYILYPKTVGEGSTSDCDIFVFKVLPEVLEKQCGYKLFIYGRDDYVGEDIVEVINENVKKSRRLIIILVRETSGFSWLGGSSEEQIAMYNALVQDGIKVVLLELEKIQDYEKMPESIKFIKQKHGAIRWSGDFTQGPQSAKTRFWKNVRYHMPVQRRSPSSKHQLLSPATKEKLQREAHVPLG
Excerpt: The protocol set forth in Bird and Saklatvala (1989) J. Immunol. […] This assay examines the effect of the compounds of the invention on the IL-1 induced down-regulation of the epidermal growth factor (EGF) receptor as measured by the binding of ^125 I-labeled EGF to its receptor in normal human dermal fibroblasts (NHDF). […] The table below lists the approximate concentration of representative peptides of the invention which blocked 50% of the IL-1 induced down regulation of the EGF receptor. IC50 values are indicated symbolically by the symbols "-", "+", and "++". […] Those peptides which give IC50 values of less than or equal to 100 μM are given a "+", while those which give IC50 values of 500 nM or less are indicated with a "++". Those peptides which give IC50 values at or near the cutoff point for a particular symbol are indicated with a hybrid, e.g. "±". Those peptides for which IC50 values were not determined are listed as "N.D".

IL-1RtI = biological target: T2, IL-1RtI (Homo sapiens, UniProt P14778); experiment: Inhibition of 125I-IL-1α binding to IL-1RtI (Example 3)
T2 construct: made in house; host or cells: recombinant host cells (one form soluble from baculovirus transformed host cells; another PIG-tailed and cleaved from the cell surface)
T2 sequence (P14778 18-336): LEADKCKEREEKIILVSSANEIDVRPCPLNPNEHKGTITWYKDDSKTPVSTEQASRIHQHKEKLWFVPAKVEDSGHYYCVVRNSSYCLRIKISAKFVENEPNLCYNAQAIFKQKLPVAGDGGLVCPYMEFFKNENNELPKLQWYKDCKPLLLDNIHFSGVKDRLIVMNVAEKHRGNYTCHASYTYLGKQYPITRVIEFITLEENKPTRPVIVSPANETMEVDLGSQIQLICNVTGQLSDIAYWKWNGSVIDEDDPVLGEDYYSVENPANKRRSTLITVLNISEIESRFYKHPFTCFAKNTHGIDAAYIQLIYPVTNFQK
Procedure, shortened: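 Competition with 90 pM 125I-IL-1α was run in duplicate for 2 h at 4 °C in HEPES-buffered RPMI with 1% BSA, pH 7.2-7.3, against either antibody-captured truncated receptor or cells with full-length IL-1RtI. Gamma counting of NaOH-detached material gave approximate IC50; high-affinity peptides used 24-well format.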

[2] = biological target: T3, IL-1 induced E-selectin in HUVEC cells (Homo sapiens, UniProt P14778); experiment: Peptide Effects on IL-1 Induced E-Selectin (HUVEC Cells); assay type: cell-based; conditions: 120 pM IL-1α, read-out: IC50 (concentration required to inhibit 50% of IL-1 induced E-selectin expression)
T3 sequence (P14778 18-569): T1 sequence (P14778 18-569)
Description: The compounds of the present invention were assayed for their ability to inhibit the expression of IL-1 induced E-selectin in HUVEC cells (human umbilical vein endothelial cells). HUVEC cells are grown to confluency in the wells of a 24-well microtiter plate. The compounds were serially diluted in DMEM/F12+0.1% BSA ("SFM"with 120 pM IL-1α. The cells were washed and then incubated with IL-1α and the compound to be tested for 15 minutes. The cells were again washed and incubated in SFM for 4 hours. The cells were washed and incubated with anti-selectin antibody for 30 minutes. Following antibody incubation, the cells were incubated with ^125 I Protein A and washed. The amount of ^125 I bound to the cells was then determined. The concentration of compounds required to inhibit 50% of IL-1 induced E-selectin expression is shown below.

[3] = inhibition of 125I-IL-1α binding to IL-1RtI, soluble peptide unless marked *

| Compound | IC50 [1] [nM] | IC50 (IL-1RtI; [3]) [nM] | IC50 [2] [nM] | IC50 (IL-1RtI) [nM] |
| --- | --- | --- | --- | --- |
| CC(=O)N[C@@H](Cc1ccccc1)C(=O)N[C@@H](CCC(=O)O)C(=O)N[C@@H](Cc1c[nH]c2ccccc12)C(=O)N[C@H](C(=O)N1CCC[C@H]1C(=O)NCC(=O)N[C@@H](Cc1c[nH]c2ccccc12)C(=O)N[C@@H](Cc1ccc(O)cc1)C(=O)N[C@@H](CCC(N)=O)C(=O)N1CC[C@H]1C(=O)N[C@@H](Cc1ccc(O)cc1)C(N)=O)[C@@H](C)O [AcFEWTPGWYQJY--NH2] (Ac-FEWTPGWYQ[Aze]Y-NH2) | 500 | ≤ 500 | ≤ 500 | – |
| CC(=O)N[C@@H](Cc1ccccc1)C(=O)N[C@@H](CCC(=O)O)C(=O)N[C@@H](Cc1c[nH]c2ccccc12)C(=O)N[C@H](C(=O)N1CCC[C@H]1C(=O)NCC(=O)N[C@@H](Cc1ccc(O)cc1)C(=O)N[C@@H](Cc1ccc(O)cc1)C(=O)N[C@@H](CCC(N)=O)C(=O)N1CC[C@H]1C(=O)N[C@@H](Cc1ccc(O)cc1)C(N)=O)[C@@H](C)O [AcFEWTPGYYQJY--NH2] (Ac-FEWTPGYYQ[Aze]Y-NH2) | 500 | – | ≤ 500 | – |
| CC(=O)N[C@@H](Cc1ccccc1)C(=O)N[C@@H](CCC(=O)O)C(=O)N[C@@H](Cc1c[nH]c2ccccc12)C(=O)N[C@H](C(=O)N1CCC[C@H]1C(=O)N[C@H](C)C(=O)N[C@@H](Cc1c[nH]c2ccccc12)C(=O)N[C@@H](Cc1ccc(O)cc1)C(=O)N[C@@H](CCC(N)=O)C(=O)N1CC[C@H]1C(=O)N[C@@H](Cc1ccc(O)cc1)C(N)=O)[C@@H](C)O [AcFEWTPaWYQJY--NH2] (Ac-FEWTP[dA]WYQ[Aze]Y-NH2) | ≤ 100000 | – | ≤ 500 | – |
| CC(=O)N[C@@H](Cc1ccccc1)C(=O)N[C@@H](CCC(=O)O)C(=O)N[C@@H](Cc1c[nH]c2ccccc12)C(=O)N[C@H](C(=O)N1CCC[C@H]1C(=O)N[C@H](C)C(=O)N[C@@H](Cc1ccc(O)cc1)C(=O)N[C@@H](Cc1c[nH]c2ccccc12)C(=O)N[C@@H](CCC(N)=O)C(=O)N1CC[C@H]1C(=O)N[C@@H](Cc1ccc(O)cc1)C(N)=O)[C@@H](C)O [AcFEWTPaYWQJY--NH2] (Ac-FEWTP[dA]YWQ[Aze]Y-NH2) | ≤ 100000 | – | ≤ 500 | – |
| CC(=O)N[C@@H](Cc1ccccc1)C(=O)N[C@@H](CCC(=O)O)C(=O)N[C@@H](Cc1c[nH]c2ccccc12)C(=O)N[C@H](C(=O)N1CCC[C@H]1C(=O)N[C@H](C)C(=O)N[C@@H](Cc1ccc(O)cc1)C(=O)N[C@@H](Cc1ccc(O)cc1)C(=O)N[C@@H](CCC(N)=O)C(=O)N1CC[C@H]1C(=O)N[C@@H](Cc1ccc(O)cc1)C(N)=O)[C@@H](C)O [AcFEWTPaYYQJY--NH2] (Ac-FEWTP[dA]YYQ[Aze]Y-NH2) | ≤ 100000 | – | ≤ 500 | – |
| CC(C)C[C@H](NC(=O)[C@@H]1CCCN1C(=O)[C@H](CC(C)C)NC(=O)[C@H](C)NC(=O)[C@H](Cc1ccc(O)cc1)NC(=O)[C@@H]1CCN1C(=O)[C@H](CCC(N)=O)NC(=O)[C@H](Cc1ccc(O)cc1)NC(=O)[C@H](Cc1c[nH]c2ccccc12)NC(=O)CNC(=O)[C@@H]1CCCN1C(=O)[C@@H](NC(=O)[C@H](Cc1c[nH]c2ccccc12)NC(=O)[C@H](CCC(=O)O)NC(=O)[C@@H](N)Cc1ccccc1)[C@@H](C)O)C(=O)O [FEWTPGWYQJYALPL] (H-FEWTPGWYQ[Aze]YALPL-OH) | – | – | ≤ 500 | – |
| C[C@@H](O)[C@H](NC(=O)[C@H](Cc1c[nH]c2ccccc12)NC(=O)[C@H](CCC(=O)O)NC(=O)[C@@H](N)Cc1ccccc1)C(=O)N1CCC[C@H]1C(=O)NCC(=O)N[C@@H](Cc1ccc(O)cc1)C(=O)N[C@@H](Cc1c[nH]c2ccccc12)C(=O)N[C@@H](CCC(N)=O)C(=O)N1CC[C@H]1C(=O)N[C@@H](Cc1ccc(O)cc1)C(N)=O [FEWTPGYWQJY--NH2] (H-FEWTPGYWQ[Aze]Y-NH2) | ≤ 100000 | ≤ 500 | – | – |
| CC(C)C[C@H](NC(=O)[C@@H]1CCCN1C(=O)[C@H](CC(C)C)NC(=O)[C@H](C)NC(=O)[C@H](Cc1ccc(O)cc1)NC(=O)[C@@H]1CCN1C(=O)[C@H](CCC(N)=O)NC(=O)[C@H](Cc1c[nH]c2ccccc12)NC(=O)[C@H](Cc1ccc(O)cc1)NC(=O)CNC(=O)[C@@H]1CCCN1C(=O)[C@@H](NC(=O)[C@H](Cc1c[nH]c2ccccc12)NC(=O)[C@H](CCC(=O)O)NC(=O)[C@@H](N)Cc1ccccc1)[C@@H](C)O)C(=O)O [FEWTPGYWQJYALPL] (H-FEWTPGYWQ[Aze]YALPL-OH) | ≤ 500 | – | ≤ 500 | – |
| CC(C)C[C@H](NC(=O)[C@@H]1CCCN1C(=O)[C@H](CC(C)C)NC(=O)[C@H](C)NC(=O)[C@H](Cc1ccc(O)cc1)NC(=O)[C@@H]1CCN1C(=O)[C@H](CCC(N)=O)NC(=O)[C@H](Cc1ccc(O)cc1)NC(=O)[C@H](Cc1ccc(O)cc1)NC(=O)CNC(=O)[C@@H]1CCCN1C(=O)[C@@H](NC(=O)[C@H](Cc1c[nH]c2ccccc12)NC(=O)[C@H](CCC(=O)O)NC(=O)[C@@H](N)Cc1ccccc1)[C@@H](C)O)C(=O)O [FEWTPGYYQJYALPL] (H-FEWTPGYYQ[Aze]YALPL-OH) | ≤ 500 | – | ≤ 500 | – |
| CC(C)C[C@H](NC(=O)[C@@H]1CCCN1C(=O)[C@H](CC(C)C)NC(=O)[C@H](C)NC(=O)[C@H](Cc1ccc(O)cc1)NC(=O)[C@@H]1CCN1C(=O)[C@H](CCC(N)=O)NC(=O)[C@H](Cc1c[nH]c2ccccc12)NC(=O)[C@H](Cc1ccc(O)cc1)NC(=O)[C@@H](NC(=O)[C@H](Cc1ccccc1)NC(=O)[C@@H](N)[C@@H](C)O)C(C)C)C(=O)O [TFVYWQJYALPL] (H-TFVYWQ[Aze]YALPL-OH) | > 100000 | ≤ 100000 | – | – |
| CC(C)C[C@H](NC(=O)[C@@H]1CCCN1C(=O)[C@H](CC(C)C)NC(=O)[C@H](C)NC(=O)[C@H](Cc1ccc(O)cc1)NC(=O)[C@@H]1CCCN1C(=O)[C@H](CCC(N)=O)NC(=O)[C@H](Cc1c[nH]c2ccccc12)NC(=O)[C@H](Cc1ccc(O)cc1)NC(=O)[C@H](NC(=O)[C@H](Cc1ccccc1)NC(=O)[C@@H](N)[C@@H](C)O)C(C)C)C(=O)O [TFvYWQPYALPL] (H-TF[dV]YWQPYALPL-OH) | > 100000 | – | – | – |
| CC(C)C[C@H](NC(=O)[C@@H]1CCCN1C(=O)[C@H](CC(C)C)NC(=O)[C@H](C)NC(=O)[C@H](Cc1ccc(O)cc1)NC(=O)[C@@H]1CCN1C(=O)[C@H](CCC(N)=O)NC(=O)[C@H](Cc1ccc(OP(=O)(O)O)cc1)NC(=O)[C@H](Cc1cccc2ccccc12)NC(=O)[C@@H](N)Cc1ccc(OP(=O)(O)O)cc1)C(=O)O [pY(1Nap)pYQJYALPL] (H-[pY][1Nal][pY]Q[Aze]YALPL-OH) | ≤ 500 | – | – | < 500 |
